The text below walks through data of patent US11827677B2, “Antimicrobial peptide ID13, preparation method and use thereof” (Feed Research Institute, Chinese Academy of Agricultural …, priority 2019, dated 2023).

For series [1], the system named is Staphylococcus aureus ATCC 43300. Nature of the series: MIC by trace broth dilution method. In kind it is cell-based. Conditions: 16-18 h. The protocol:
(§1) The minimum inhibition concentration (MIC) of ID13 against pathogens was measured using a trace broth dilution method. The freeze-dried powder of antimicrobial peptide ID13 obtained in Example 6 was used to prepare a solution of antimicrobial peptide ID13 with a concentration of 1280 μg/mL and a solution of vancomycin, respectively with sterile normal saline, and diluted with a two-fold ratio to a final concentration of 1.25 μg/mL. The antimicrobial peptide ID13 solutions and vancomycin solutions of different concentrations were added to a sterile 96-well cell culture plate, with 10 μL per well, three parallels for each sample, and the same amount (10 μL) of sterile saline was used as a negative control, to prepare MIC plates. Strains were cultured in MH liquid medium with shaking at 37° C. until its OD600 nm=0.4 and diluted to 1×10^5 CFU/ml. 90 μL of cell suspension was added into each well of the prepared sample well of the MIC plate and incubated at 37° C. for 16-18 h.

The subject of series [2] is Staphylococcus aureus CVCC 546. The series can be described thus: MIC by trace broth dilution method. In kind it is cell-based. Conditions: 16-18 h. Here is the method:
as §1

Series [3] deals with Streptococcus suis CVCC 3928. The series can be described thus: MIC by trace broth dilution method. The format is cell-based. The following applies: 16-18 h. The protocol: as §1
(In general: Dilution methods test growth across graded concentrations, often in twofold steps.)

Another series concerns MRSA ATCC 43300. Conditions: cited from earlier work.
Series [4] relates to Staphylococcus Epidermidis ATCC 12228. The series can be described thus: MIC by trace broth dilution method. In kind it is cell-based. Here is the method:
as §1

For series [5], the system named is Streptococcus pneumoniae CVCC 2350. Nature of the series: MIC by trace broth dilution method. The format is cell-based. The protocol: as §1
The next series has as its system Gram-positive bacteria. The series can be described thus: Antimicrobial activity (MIC) summary over tested strains. In kind it is cell-based. The following applies: range over the tested Gram-positive strains. Here is the method:
as §1

A further series relates to mice red blood cells. The series can be described thus: Hemolysis assay. The format is cell-based, ICR mice. The following applies: concentration of 1-256 μg/mL; 37° C., 1 h. The protocol: The freeze-dried powder of antimicrobial peptide ID13 obtained in Example 6 was used for the test. The antimicrobial peptide ID13 was dissolved in sterile physiological saline to prepare a stock solution of a concentration of 512 μg/mL, and diluted with a 2-fold ratio to a final concentration of 2 μg/mL. The blood from the eyeballs of 6-week-old SPF female ICR mice was taken and collected with a heparin sodium anticoagulation tube. The collected blood was centrifuged at 4° C., 1500 rpm for 10 min. The red blood cells were washed three times with 10 mM PBS (pH 7.3) until the supernatant was colorless and transparent, and an 8% red blood cell suspension was prepared. 100 μL of the red blood cell suspension and antimicrobial peptide ID13 solution were added to 96-well plate, incubated at 37° C. for 1 h, and centrifuged at 1500 rpm for 5 min. The resulted supernatant was transferred to ELISA plate to detect the UV absorbance at 540 nm. Values of 0% and 100% hemolysis control tests were set up with physiological saline and 0.1% TRITON X-100 detergent, respectively. The formula for calculating the degree of hemolysis was as follows (Jung, Park, etc., 2007): Hemolysis (%)=[(Abs540 nm antimicrobial peptide ID13—Abs540 nm physiological saline)/(Abs540 nm 0.1% TRITON X-100 detergent—Abs540 nm physiological saline)]×100%.

For another series, the system named is RAW264.7 cells. Nature of the series: Cytotoxicity assay (MTT). Conditions: 256 μg/mL, 24 hours incubation. The format is cell-based. The protocol:
The RAW264.7 cells were cultured in DMEM complete medium with 37° C., 5% CO2 and saturated humidity conditions. The cells were pipetted and re-suspended in DMEM complete medium. Then, the cells were seeded in a 96-well plate at a density of 2.5×10^5 cells/mL, 100 μL per well, and 3 replicates were set. After 24 h, the medium was removed, and 100 μL of 1, 2, 4, 8, 16, 32, 64, 128, and 256 μg/mL ID13 were added to each well according to a concentration gradient. Control wells were added with the same amount of PBS solution. After 24 hours incubation, the medium was removed; the wells were washed twice with PBS, and 100 μL of MTT at a concentration of 5 mg/mL was added to each well (which were operated in dark). The 96-well plate was moved to an incubator and continued to be incubated for 4 h. After discarding the MTT solution, 150 μL DMSO was added into each well, and then the plate was cultured with shaking for 10 minutes. When crystals at the well bottom were completely dissolved, the absorbance values were measured at a wavelength of 570 nm. The cell survival rate was calculated according to the following formula: survival rate (%)=OD value of the treatment group/OD value of the control group×100% (Jiao et al., 2015).

Molecules are shown by their SMILES. Several values for one entry are separate records, joined by “and”; a condition that tells them apart may be missing. Equal values may be shown once. Read-outs that look alike come from different tables or passages of the source. Bridge positions count the residues as written; N and C are the ends. Peptide text beside a SMILES is read from it.

As a reminder, the MIC is the lowest concentration found to suppress growth.

Regarding `CC[C@H](C)[C@@H]1NC(=O)[C@@H]2CSSC[C@@H](C(=O)N[C@@H](CCCNC(=N)N)C(=O)N[C@@H](CCCCN)C(=O)O)NC(=O)[C@H](CC(N)=O)NC(=O)[C@@H]3CSSC[C@H](NC(=O)[C@H](C)NC(=O)[C@H](C)NC(=O)[C@H](Cc4c[nH]cn4)NC(=O)CNC(=O)[C@H](C(C)C)NC(=O)[C@H](CCCCN)NC(=O)[C@H](Cc4ccccc4)NC(=O)[C@@H]4CCCN4C(=O)[C@H](CO)NC(=O)[C@H](CC(C)C)NC(=O)[C@H](CC(C)C)NC(=O)[C@H](CC(=O)O)NC(=O)[C@@H](NC(=O)[C@@H](NC(=O)[C@H](C)N)[C@@H](C)O)CSSC[C@H](NC(=O)[C@H](Cc4c[nH]c5ccccc45)NC(=O)CNC(=O)CNC(=O)[C@H](CCCNC(=N)N)NC(=O)[C@H](CCCCN)NC(=O)CNC(=O)[C@H](CCCNC(=N)N)NC(=O)[C@H](C)NC1=O)C(=O)N[C@@H](CC(=O)O)C(=O)N[C@@H](CCCCN)C(=O)N[C@@H](CCCNC(=N)N)C(=O)N[C@@H](C)C(=O)N[C@@H](C(C)C)C(=O)N3)C(=O)N[C@@H](C)C(=O)N[C@@H](C)C(=O)N[C@@H](Cc1c[nH]cn1)C(=O)N2` [DLP4] (H-ATCDLLSPFKVGHAACAAHCIARGKRGGWCDKRAVCNCRK-OH; disulfide 3-30, 16-36, 20-38; N-terminus and C-terminus assumed), the MIC in [1] (37° C.), in [2] (37° C.) and in series [3] (37° C.) was 16 µg/mL throughout. Further, the “drug tolerance such as increased MIC” value in the series with MRSA ATCC 43300 (MRSA ATCC 43300 continuously passaged for 30 days under the effective dose) is “no drug tolerance”.
Consider `CC[C@H](C)[C@@H]1NC(=O)[C@@H]2CSSC[C@@H](C(=O)N[C@@H](CCCNC(=N)N)C(=O)N[C@@H](CCCCN)C(=O)O)NC(=O)[C@H](CC(N)=O)NC(=O)[C@@H]3CSSC[C@H](NC(=O)[C@H](C)NC(=O)[C@H](C)NC(=O)[C@H](Cc4c[nH]cn4)NC(=O)CNC(=O)[C@H](C(C)C)NC(=O)[C@H](CCCCN)NC(=O)[C@H](Cc4ccccc4)NC(=O)[C@@H]4CCCN4C(=O)[C@H](CO)NC(=O)[C@H](CC(C)C)NC(=O)[C@H](CC(C)C)NC(=O)[C@H](CC(=O)O)NC(=O)[C@@H](NC(=O)[C@@H](NC(=O)[C@H](C)N)[C@@H](C)O)CSSC[C@H](NC(=O)[C@H](Cc4c[nH]c5ccccc45)NC(=O)CNC(=O)CNC(=O)[C@H](CCCNC(=N)N)NC(=O)[C@H](CCCCN)NC(=O)CNC(=O)[C@H](CCCNC(=N)N)NC(=O)[C@H](C)NC1=O)C(=O)N[C@@H](CC(=O)O)C(=O)NCC(=O)N[C@@H](CCCNC(=N)N)C(=O)N[C@@H](C)C(=O)N[C@@H](C(C)C)C(=O)N3)C(=O)N[C@@H](C)C(=O)N[C@@H](C)C(=O)N[C@@H](Cc1c[nH]cn1)C(=O)N2` [ID13] (H-ATCDLLSPFKVGHAACAAHCIARGKRGGWCDGRAVCNCRK-OH; disulfide 3-30, 16-36, 20-38 (inferred); N-terminus and C-terminus assumed), for which the MIC in [4] (Staphylococcus Epidermidis ATCC 12228, 37° C., 16-18 h) is 1.91 μM and 8 μg/mL; in series [1] (37° C.) it was 4 µg/mL; in series [1] (37° C., read-out: MIC) it was 0.95 µM; in series [2] (37° C.), 4 µg/mL; in series [2] (37° C., read-out: MIC) it was 0.95 µM; in [5] (Streptococcus pneumoniae CVCC 2350, 37° C., 16-18 h), 0.95 μM and 4 μg/mL. Moreover, the MIC in [3] (37° C.) turned out to be 4 µg/mL; in series [3] (37° C., read-out: MIC), 0.95 µM. Also, the “antimicrobial activity against Gram-positive bacteria (MIC range)” value in the series with Gram-positive bacteria was 0.95 to 1.91 µM. For the same molecule, the “hemolysis to mice red blood cells” value in the series on mice red blood cells is given as “little hemolysis”. Also, the cell survival rate in the series with RAW264.7 cells is recorded as 72%.
Take `CN[C@H](CC(C)C)C(=O)N[C@H]1C(=O)N[C@@H](CC(N)=O)C(=O)N[C@H]2C(=O)N[C@H]3C(=O)N[C@H](C(=O)N[C@H](C(=O)O)c4cc(O)cc(O)c4-c4cc3ccc4O)[C@H](O)c3ccc(c(Cl)c3)Oc3cc2cc(c3O[C@@H]2O[C@H](CO)[C@@H](O)[C@H](O)[C@H]2O[C@H]2C[C@](C)(N)[C@H](O)[C@H](C)O2)Oc2ccc(cc2Cl)[C@H]1O` [Vancomycin]: the MIC in series [4] (Staphylococcus epidermidis, ATCC12228) was 0.67 µM and 1 µg/mL; in series [1] (ATCC43300, 37° C., read-out: MIC), 0.67 µM and 1 µg/mL; in [2] (CVCC546, 37° C., read-out: MIC), 0.67 µM and 1 µg/mL; in series [5] (Streptococcus pneumoniae, CVCC2350), 0.34 µM and 0.5 µg/mL; in [3] (CVCC3928, 37° C., read-out: MIC), 0.17 µM and 0.25 µg/mL.
Consider `CO/N=C(\C(=O)N[C@@H]1C(=O)N2C(C(=O)O)=C(CSc3nc(=O)c(=O)[nH]n3C)CS[C@H]12)c1csc(N)n1` [ceftriaxone], for which the “increase of MIC value” in the series with MRSA ATCC 43300 (MRSA ATCC 43300 continuously passaged for 30 days) was 256 times.
